According to US20260250277A1, “HYDRAZINO GROUP-CONTAINING COMPOUND” (CHIA TAI TIANQING PHARMACEUTICAL GROUP CO., LTD., priority 2022, published 2026):
Where two headings read alike, the source gives them in different places.

Legend:
ATM kinase = ATM kinase (Homo sapiens, UniProt Q13315); experiment: Inhibitory activity against ATM kinase (p53 substrate, HTRF); assay type: biochemical
Protocol: (§1) ATM kinase solution (concentration: 25 ng/μL) was added to assay wells at 6 μL/well, and different compounds dissolved in DMSO were added to the assay wells separately using a nanoliter pipettor, such that the final concentrations of the compounds were 10000 nM to 2.44 nM. In this experiment, the wells were set in duplicate, and a control well was set. After incubation of the above system for 30 min at room temperature, ATP (100 μM) was mixed with p53 substrate (50 nM) at a ratio of 1:1, and the mixture was added at 4 μL/well. The resulting mixture was left to react at room temperature for 2 h, and then 5 μL of EDTA was added to terminate the reaction, followed by addition of 5 μL of detection antibodies, Mab Anti-phospho p53 and Mab Anti GST-d2 (manufacturer: perkinelmer). The mixture was incubated at room temperature for 1 h. The plate was read using a PerkinElmer Envision multifunctional microplate reader (excitation: 320 nm, emission: 620 nm/665 nm), and IC50 was calculated by four-parameter fitting.

[1] = biological target: ATR/ATPIP (ATR-interacting protein) kinase (Homo sapiens, UniProt Q13535); experiment: Inhibitory activity against ATR kinase (p53 substrate, HTRF); assay type: biochemical
Protocol: as §1, with “ATR/ATPIP (ATR-interacting protein)” for “ATM”, “50” for “25”, “(5” for “(100”

[2] = biological target: DNA-PK (DNA-dependent protein kinase) (Homo sapiens, UniProt P78527); experiment: Inhibitory activity against DNA-PK (p53 substrate, HTRF); assay type: biochemical
Protocol: as §1, with “DNA-PK” for “ATM”, “0.15” for “25”

[3] = test system: CHK2 phosphorylation of NCI-H2228 cells; experiment: Inhibitory activity against CHK2 phosphorylation of NCI-H2228 cells (p-CHK2 Thr68 AlphaLISA); assay type: cell-based; conditions: Homo sapiens
Protocol: NCI-H2228 cells in a good growth state were collected, added to a centrifuge tube, adjusted to a cell density of 1.25×10^6 cells/mL, and seeded in a 384-well plate (8 μL/well). The cells were equilibrated in a cell incubator for 1.5 h, and then compounds were added using a nanoliter pipettor, such that the final concentrations of the compounds were 200 nM to 0.049 nM. In this experiment, the wells were set in duplicate, and a control well was set. After the mixture was further cultured for 1 h in the cell incubator, an assay was performed using a p-CHK2 (Thr68) assay kit (manufacturer: perkinelmer) and the Envision microplate reader AlphaLISA program. A four-parameter analysis was performed, a dose-response curve was fit, and IC50 was calculated.

[4] = In vivo pharmacokinetics (Table 4); conditions: for AUC(0-inf) / AUC(0-t) / half-life / MRT last / Vd / Cmax / Tmax: plasma; for MRT last: read-out: MRT(0-t); for Vd: read-out: Vz

Sequence of ATR/ATPIP (ATR-interacting protein) kinase (Q13535 whole entry): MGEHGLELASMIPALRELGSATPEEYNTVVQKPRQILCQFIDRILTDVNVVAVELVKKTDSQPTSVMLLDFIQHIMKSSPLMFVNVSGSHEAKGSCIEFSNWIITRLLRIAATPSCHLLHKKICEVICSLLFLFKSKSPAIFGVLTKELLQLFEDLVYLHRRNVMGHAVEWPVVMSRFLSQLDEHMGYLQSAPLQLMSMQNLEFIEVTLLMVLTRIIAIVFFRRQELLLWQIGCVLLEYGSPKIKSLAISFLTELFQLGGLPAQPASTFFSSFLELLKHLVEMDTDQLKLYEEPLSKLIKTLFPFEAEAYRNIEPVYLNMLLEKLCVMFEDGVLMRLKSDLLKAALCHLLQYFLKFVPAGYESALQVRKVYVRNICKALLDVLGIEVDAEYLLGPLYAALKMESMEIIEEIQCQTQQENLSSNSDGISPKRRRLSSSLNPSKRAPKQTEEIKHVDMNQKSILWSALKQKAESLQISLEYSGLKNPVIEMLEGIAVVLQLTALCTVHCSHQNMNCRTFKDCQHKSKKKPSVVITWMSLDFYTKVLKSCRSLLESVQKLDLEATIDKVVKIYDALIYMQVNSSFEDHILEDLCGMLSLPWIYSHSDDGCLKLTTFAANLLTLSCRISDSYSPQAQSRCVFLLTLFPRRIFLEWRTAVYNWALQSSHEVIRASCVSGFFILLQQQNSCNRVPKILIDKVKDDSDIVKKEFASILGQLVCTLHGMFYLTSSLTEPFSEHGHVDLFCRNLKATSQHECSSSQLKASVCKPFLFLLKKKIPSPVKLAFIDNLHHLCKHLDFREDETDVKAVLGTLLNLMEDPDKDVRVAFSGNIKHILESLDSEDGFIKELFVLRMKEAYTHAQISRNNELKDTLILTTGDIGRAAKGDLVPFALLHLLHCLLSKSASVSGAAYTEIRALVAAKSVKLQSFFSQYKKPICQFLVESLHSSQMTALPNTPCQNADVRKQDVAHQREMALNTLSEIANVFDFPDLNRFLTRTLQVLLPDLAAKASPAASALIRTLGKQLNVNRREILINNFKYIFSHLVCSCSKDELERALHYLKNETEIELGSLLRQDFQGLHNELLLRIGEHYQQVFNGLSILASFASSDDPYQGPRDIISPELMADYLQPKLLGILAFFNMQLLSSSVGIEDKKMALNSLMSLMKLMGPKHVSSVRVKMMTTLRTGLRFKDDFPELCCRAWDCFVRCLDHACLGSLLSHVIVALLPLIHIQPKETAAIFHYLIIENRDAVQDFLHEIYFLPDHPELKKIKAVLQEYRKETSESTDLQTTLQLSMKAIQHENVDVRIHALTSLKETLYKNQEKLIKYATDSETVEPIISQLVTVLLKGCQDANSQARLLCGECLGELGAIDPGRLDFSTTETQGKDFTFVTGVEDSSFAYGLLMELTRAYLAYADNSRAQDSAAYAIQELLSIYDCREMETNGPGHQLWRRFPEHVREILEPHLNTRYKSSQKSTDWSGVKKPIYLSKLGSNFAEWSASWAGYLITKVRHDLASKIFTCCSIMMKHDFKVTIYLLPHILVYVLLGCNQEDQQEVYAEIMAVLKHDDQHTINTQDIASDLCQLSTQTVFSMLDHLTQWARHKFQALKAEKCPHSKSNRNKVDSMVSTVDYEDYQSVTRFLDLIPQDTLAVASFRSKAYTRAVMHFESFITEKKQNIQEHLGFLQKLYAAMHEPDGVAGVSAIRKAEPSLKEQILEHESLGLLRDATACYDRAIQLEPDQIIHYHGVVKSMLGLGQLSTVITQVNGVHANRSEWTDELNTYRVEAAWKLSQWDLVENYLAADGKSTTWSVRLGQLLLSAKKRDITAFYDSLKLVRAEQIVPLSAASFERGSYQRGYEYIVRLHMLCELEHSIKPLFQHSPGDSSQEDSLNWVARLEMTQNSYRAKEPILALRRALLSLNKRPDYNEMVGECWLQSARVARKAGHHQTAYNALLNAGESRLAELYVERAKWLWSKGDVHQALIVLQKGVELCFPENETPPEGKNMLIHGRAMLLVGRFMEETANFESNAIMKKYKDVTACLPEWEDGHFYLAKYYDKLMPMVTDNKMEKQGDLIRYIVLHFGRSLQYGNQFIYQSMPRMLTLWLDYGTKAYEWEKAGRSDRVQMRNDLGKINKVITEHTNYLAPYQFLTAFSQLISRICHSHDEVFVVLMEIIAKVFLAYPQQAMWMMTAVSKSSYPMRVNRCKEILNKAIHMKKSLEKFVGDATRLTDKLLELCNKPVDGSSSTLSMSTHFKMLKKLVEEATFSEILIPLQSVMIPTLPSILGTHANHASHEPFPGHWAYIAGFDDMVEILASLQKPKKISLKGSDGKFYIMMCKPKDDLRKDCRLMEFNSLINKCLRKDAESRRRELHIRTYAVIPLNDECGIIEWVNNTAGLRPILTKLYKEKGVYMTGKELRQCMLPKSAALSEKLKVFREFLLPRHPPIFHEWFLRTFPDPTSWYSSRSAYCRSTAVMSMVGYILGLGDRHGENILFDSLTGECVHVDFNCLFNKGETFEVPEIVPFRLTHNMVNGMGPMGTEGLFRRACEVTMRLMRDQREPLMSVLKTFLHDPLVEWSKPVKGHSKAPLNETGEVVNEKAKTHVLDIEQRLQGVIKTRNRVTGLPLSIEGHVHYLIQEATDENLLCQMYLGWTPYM
Sequence of ATR/ATPIP (ATR-interacting protein) kinase (Q8WXE1 whole entry partner): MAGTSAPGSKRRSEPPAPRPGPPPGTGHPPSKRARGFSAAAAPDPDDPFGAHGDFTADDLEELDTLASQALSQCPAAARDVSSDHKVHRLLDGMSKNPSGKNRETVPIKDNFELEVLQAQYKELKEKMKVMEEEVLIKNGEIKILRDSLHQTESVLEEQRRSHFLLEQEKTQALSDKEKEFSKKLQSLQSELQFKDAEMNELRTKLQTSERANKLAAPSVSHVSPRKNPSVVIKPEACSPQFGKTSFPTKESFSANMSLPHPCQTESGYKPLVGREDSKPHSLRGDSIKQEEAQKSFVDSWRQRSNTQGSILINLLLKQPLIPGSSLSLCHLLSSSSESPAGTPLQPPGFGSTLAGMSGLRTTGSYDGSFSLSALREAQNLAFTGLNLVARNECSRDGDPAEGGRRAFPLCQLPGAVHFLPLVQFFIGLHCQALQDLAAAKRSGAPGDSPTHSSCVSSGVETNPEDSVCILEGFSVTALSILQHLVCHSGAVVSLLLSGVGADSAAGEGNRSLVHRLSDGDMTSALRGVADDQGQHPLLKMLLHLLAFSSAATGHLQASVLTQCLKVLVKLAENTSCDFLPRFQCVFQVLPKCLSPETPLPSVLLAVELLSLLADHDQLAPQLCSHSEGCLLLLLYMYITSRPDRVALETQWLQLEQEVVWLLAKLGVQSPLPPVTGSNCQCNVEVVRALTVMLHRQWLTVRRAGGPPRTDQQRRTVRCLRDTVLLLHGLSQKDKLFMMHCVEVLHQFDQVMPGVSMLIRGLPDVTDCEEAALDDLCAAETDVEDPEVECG

IC50 (ATM kinase) [nM] | IC50 [1] [nM] | IC50 [2] [nM] | IC50 [3] [nM] | Structure (SMILES) | other results
< 50 | > 10000 | > 10000 |  | Nn1c(=O)n(C2CC2)c2c3cc(-c4ccc(OCCCN5CCCCC5)nc4)c(F)cc3nnc21 [Example 36] | 
< 50 | > 1000 | > 1000 | < 50 | COC1CC(n2c(=O)n(N)c3cnc4cc(F)c(-c5ccc(OCCCN(C)C)nc5)cc4c32)C1 (stereo not drawn) [Example 21] | 
< 50 | > 1000 | > 1000 |  | Nn1c(=O)n(C2CCOCC2)c2c3cc(-c4ccc(OCCCN(C5CC5)C5CC5)nc4)c(F)cc3ncc21 [Example 6] | 
< 50 |  | > 1000 | < 50 | CC(C)n1c(=O)n(N)c2cnc3cc(F)c(-c4ccc(OCCCN5CC6(CCC6)C5)nc4)cc3c21 [Example 29] | AUC(0-inf) ([4]; iv, 1 mg/kg): 3160 ng·h/mL; AUC(0-t) ([4]; iv, 1 mg/kg): 3140 ng·h/mL; half-life ([4]; iv, 1 mg/kg): 3.22 h; MRT last ([4]; iv, 1 mg/kg): 3.29 h; Vd ([4]; iv, 1 mg/kg): 1.09 L/kg; AUC(0-inf) ([4]; po, IG, 10 mg/kg): 27300 ng·h/mL; AUC(0-t) ([4]; po, IG, 10 mg/kg): 27000 ng·h/mL; Cmax ([4]; po, IG, 10 mg/kg): 2300 ng/mL; Tmax ([4]; po, IG, 10 mg/kg): 4 h; half-life ([4]; po, IG, 10 mg/kg): 3.51 h; MRT last ([4]; po, IG, 10 mg/kg): 5.99 h
< 50 | 8720 | > 10000 | < 50 | COc1cc2ncc3c(c2cc1-c1ccc(OCCCN2CCCC2)nc1)n(-c1c(F)cncc1OC)c(=O)n3N [Example 31] | 
< 50 |  | > 1000 | < 50 | CC(C)n1c(=O)n(N)c2cnc3cc(F)c(-c4ccc(OCCCN5CC(CF)C5)nc4)cc3c21 [Example 28] | AUC(0-inf) ([4]; iv, 1 mg/kg): 2240 ng·h/mL; AUC(0-t) ([4]; iv, 1 mg/kg): 2230 ng·h/mL; half-life ([4]; iv, 1 mg/kg): 3.1 h; MRT last ([4]; iv, 1 mg/kg): 3.24 h; Vd ([4]; iv, 1 mg/kg): 1.5 L/kg; AUC(0-inf) ([4]; po, IG, 10 mg/kg): 17300 ng·h/mL; AUC(0-t) ([4]; po, IG, 10 mg/kg): 17200 ng·h/mL; Cmax ([4]; po, IG, 10 mg/kg): 1630 ng/mL; Tmax ([4]; po, IG, 10 mg/kg): 4 h; half-life ([4]; po, IG, 10 mg/kg): 3.04 h; MRT last ([4]; po, IG, 10 mg/kg): 5.56 h
< 50 | > 1000 | > 1000 | < 50 | Nn1c(=O)n(C2CCOCC2)c2c3cc(-c4ccc(OCCCN5CCCC5)nc4)c(F)cc3ncc21 [Example 5] | 
< 50 | > 1000 | > 1000 |  | COc1cc2ncc3c(c2cc1-c1ccc(OCCCN2CCCCC2)nc1)n(C(C)C)c(=O)n3N [Example 16] | 
< 50 | 8090 | > 10000 |  | COc1cc2ncc3c(c2cc1-c1ccc(OCCCN2CCCCC2)nc1)n(-c1c(F)cncc1OC)c(=O)n3N [Example 30] | 
< 50 | > 1000 | > 1000 | < 50 | COc1cc2ncc3c(c2cc1-c1ccc(OCCCN2CCCC2)nc1)n(C1CC1)c(=O)n3N [Example 11] | 
< 50 | > 10000 | > 10000 |  | CC(C)n1c(=O)n(N)c2nnc3cc(F)c(-c4ccc(OCCCN5CCCC5)nc4)cc3c21 [Example 34] | 
< 50 |  | > 1000 | < 50 | CC(C)n1c(=O)n(N)c2cnc3cc(F)c(-c4ccc(OCCCN5CC(F)(F)C5)nc4)cc3c21 [Example 24] | 
< 50 | > 1000 | > 1000 | < 50 | COC1CCC(n2c(=O)n(N)c3cnc4cc(F)c(-c5ccc(OCCCN(C)C)nc5)cc4c32)C1 (stereo not drawn) [Example 14] | 
< 50 | > 1000 | > 1000 |  | [2H]C([2H])([2H])Nn1c(=O)n(C(C)C)c2c3cc(-c4ccc(OCCCN5CCCCC5)nc4)c(F)cc3ncc21 [Example 8] | 
< 50 | > 10000 | > 10000 |  | Nn1c(=O)n(C2CC2)c2c3cc(-c4ccc(OCCCN5CCCC5)nc4)c(F)cc3nnc21 [Example 37] | 
< 50 | > 10000 | > 10000 |  | CNn1c(=O)n(C(C)C)c2c3cc(-c4ccc(OCCCN5CCCC5)nc4)c(F)cc3nnc21 [Example 35] | 

IC50 (ATM kinase) [nM] | IC50 [1] [nM] | IC50 [2] [nM] | IC50 [3] [nM] | Structure (SMILES) | other results
< 50 | > 1000 | > 1000 | < 50 | COC1CCC(n2c(=O)n(N)c3cnc4cc(F)c(-c5ccc(OCCCN6CCCC6)nc5)cc4c32)C1 (stereo not drawn) [Example 13] | 
< 50 | > 1000 | > 1000 | < 50 | COc1cc2ncc3c(c2cc1-c1ccc(OCCCN2CCCC2)nc1)n(C(C)C)c(=O)n3N [Example 17] | 
< 50 |  | > 1000 | < 50 | CC(C)n1c(=O)n(N)c2cnc3cc(F)c(-c4ccc(OCCCN5CC(F)C5)nc4)cc3c21 [Example 23] | 
< 50 |  | > 1000 | < 50 | CC(C)n1c(=O)n(N)c2cnc3cc(F)c(-c4ccc(OCCCN5CCC(F)(F)C5)nc4)cc3c21 [Example 26] | 
< 50 |  | > 1000 | < 50 | CC(C)n1c(=O)n(N)c2cnc3cc(F)c(-c4ccc(OCC5CC(N6CCCC6)C5)nc4)cc3c21 (stereo not drawn) [Example 22] | 
< 50 | > 1000 | > 1000 |  | COC1CCC(n2c(=O)n(N)c3cnc4cc(F)c(-c5ccc(OCCCN6CCCCC6)nc5)cc4c32)C1 (stereo not drawn) [Example 12] | 
< 50 | > 1000 | > 1000 | < 50 | CNn1c(=O)n(C(C)C)c2c3cc(-c4ccc(OCCCN5CCCCC5)nc4)c(F)cc3ncc21 [Example 7] | 
< 50 |  | > 1000 | < 50 | CC(C)n1c(=O)n(N)c2cnc3cc(F)c(-c4ccc(OCCCN5CCC(CF)C5)nc4)cc3c21 (stereo not drawn) [Example 25] | 
< 50 | 289 | > 1000 |  | CC(C)n1c(=O)n(N)c2cnc3ccc(-c4ccc(OCCCN5CCCCC5)nc4)cc3c21 [Example 1] | 
 |  |  | < 50 | CC(C)n1c(=O)n(N)c2nnc3cc(F)c(-c4ccc(OCCCN5CCCCC5)nc4)cc3c21 [Example 32] | 
< 50 | > 1000 | > 1000 |  | Nn1c(=O)n(C2CCOCC2)c2c3cc(-c4ccc(OCCCN5CCCCC5)nc4)c(F)cc3ncc21 [Example 15] | 
< 50 | > 1000 | > 1000 |  | COc1cc2ncc3c(c2cc1-c1ccc(OCCCN2CCCCC2)nc1)n(C1CC1)c(=O)n3N [Example 10] | 
< 50 | > 10000 | > 10000 |  | CNn1c(=O)n(C(C)C)c2c3cc(-c4ccc(OCCCN5CCCCC5)nc4)c(F)cc3nnc21 [Example 33] | 
< 50 | > 1000 | > 1000 | < 50 | COC1CC(n2c(=O)n(N)c3cnc4cc(F)c(-c5ccc(OCCCN6CCCCC6)nc5)cc4c32)C1 (stereo not drawn) [Example 20] | 
< 50 | > 1000 | > 1000 |  | CC(C)n1c(=O)n(N)c2cnc3cc(F)c(-c4ccc(OCCCN(C5CC5)C5CC5)nc4)cc3c21 [Example 4] | 

Structure (SMILES) | IC50 (ATM kinase) [nM] | IC50 [1] [nM] | IC50 [2] [nM] | IC50 [3] [nM] | other results
CC(C)n1c(=O)n(N)c2cnc3cc(F)c(-c4ccc(OCCCN5C6CCC5CC6)nc4)cc3c21 [Example 27] | < 50 |  | > 1000 | < 50 | Absolute F ([4]; IG 10 mg/kg vs IV 1 mg/kg): 115.39%; CLz ([4]; IV, 1 mg/kg): 59.7 mL/min/kg; AUC(0-inf) ([4]; iv, 1 mg/kg): 280 ng·h/mL; AUC(0-t) ([4]; iv, 1 mg/kg): 271 ng·h/mL; half-life ([4]; iv, 1 mg/kg): 1.87 h; MRT last ([4]; iv, 1 mg/kg): 1.43 h; Vd ([4]; iv, 1 mg/kg): 6.11 L/kg; AUC(0-inf) ([4]; po, IG, 10 mg/kg): 3190 ng·h/mL; AUC(0-t) ([4]; po, IG, 10 mg/kg): 3130 ng·h/mL; Cmax ([4]; po, IG, 10 mg/kg): 342 ng/mL; Tmax ([4]; po, IG, 10 mg/kg): 2 h; half-life ([4]; po, IG, 10 mg/kg): 4.12 h; MRT last ([4]; po, IG, 10 mg/kg): 5.7 h
